Source: patent EP0168515A2, “Process for the preparation of steffimycinones, analogues of steffimycinones so obtained, intermediates useful in the synthesis of those compounds, use of these compounds as antibacterials acid for the synthesis of antitumor products” (LABORATOIRES HOECHST S.A., priority 1984, dated 1986)

How the values were obtained:
[1] = tested on: Bacillus subtilis (ATCC 6533); test: Bactericidal action: growth inhibition test; format: cell-based; settings: 100 µg/ml in 60% Dimethylsulfoxyd / 40% destilliertem Wasser, after 24 Stunden
Method: (§1) Das Produkt der Formel II wurde an folgenden Mikroorganismen geprüft: • Bacillus pumilus (CNCM 7618) und • Bacillus subtilis (ATCC 6533)
(§2) Es wurde auf eine Konzentration von 100 µg/ml in einem Gemisch aus 60% Dimethylsulfoxyd und 40% destilliertem Wasser solubilisiert.

[2] = tested on: Bacillus pumilus (CNCM 7618); test: Bactericidal action: growth inhibition test; format: cell-based; settings: 100 µg/ml in 60% Dimethylsulfoxyd / 40% destilliertem Wasser, after 24 Stunden
Method: as §1, §2

COc1cc(O)c2c(c1)C(=O)c1cc3c(c(O)c1C2=O)C(O)CC(C)(O)C3=O (single isomer, unassigned; (+)) [Verbindung II, (+)-8-Desmethoxy-steffimycinon]
Wachstum [1]: völlig gehemmt | Wachstum [2]: völlig gehemmt
